How the values were obtained:
[1] = Antiviral activity against HAV HM175 infected in African green monkey Vero cells assessed as inhibition of virus-induced cytopathic effect measured after 48 hrs by crystal violet staining based assay; type: functional, Human hepatitis A virus, Hu/Australia/HM175/1976
[2] = Cytotoxicity against African green monkey Vero cells measured after 48 hrs by crystal violet staining based colorimetric method; type: cell-based; details: chlorocebus sabaeus; for MNTC at 48 h: read-out: MNCC
[3] = Selectivity index, ratio of CC50 for African green monkey Vero cells to EC50 for HAV HM175 infected in African green monkey Vero cells; type: toxicity; details: for selectivity ratio: Vero cells, read-out: Ratio CC50/EC50; for Ratio CC50/EC50: vero
[4] = Antiviral activity against HAV HM175 infected in African green monkey Vero cells assessed as inhibition of virus-induced cytopathic effect at MNCC measured after 48 hrs by crystal violet staining based assay relative to control; type: functional, Human hepatitis A virus, Hu/Australia/HM175/1976
[5] = Inhibition of HAV protease 3C expressed in Escherichia coli BL21(DE3) pLysS using Dabcyl-GLRTQSND (edans) G as substrate preincubated for 3 mins before enzyme addition by fluorescence method; parameters: species or system Hepatovirus A
Hepatovirus A [6] = assay: Inhibition of HAV protease 3C expressed in Escherichia coli BL21(DE3) pLysS at 100 uM using Dabcyl-GLRTQSND (edans) G as substrate preincubated for 3 mins before enzyme addition by fluorescence method relative to control
Hepatovirus A [7] = assay: Inhibition of HAV protease 3C expressed in Escherichia coli BL21(DE3) pLysS at 10 uM using Dabcyl-GLRTQSND (edans) G as substrate preincubated for 3 mins before enzyme addition by fluorescence method relative to control
Hepatovirus A [8] = assay: Inhibition of HAV protease 3C expressed in Escherichia coli BL21(DE3) pLysS at 1 uM using Dabcyl-GLRTQSND (edans) G as substrate preincubated for 3 mins before enzyme addition by fluorescence method relative to control
Hepatovirus A [9] = assay: Inhibition of HAV protease 3C expressed in Escherichia coli BL21(DE3) pLysS at 0.1 uM using Dabcyl-GLRTQSND (edans) G as substrate preincubated for 3 mins before enzyme addition by fluorescence method relative to control
[10] = Hepatovirus A, Hu/Australia/HM175/1976, Vero, 48 h, read-out: EC50

Row | Compound | EC50 [1, 10] | EC50 ([1]; vero) | IC50 [5] | inhibition (Hepatovirus A [6]) | inhibition (Hepatovirus A [7]) | inhibition (Hepatovirus A [8]) | inhibition (Hepatovirus A [9]) | CC50 at 48 h [2] | MNTC at 48 h [2] | selectivity ratio [3] | inhibition (INH) [4] | Ratio CC50/EC50 [3]
1 | COc1cccc(CSc2nc3cc4ccccc4cc3c(=O)n2Cc2ccccc2)c1 | 67.8 µM |  |  |  |  |  |  | 82.7 µM | 7.8 µg/mL | 1.22 | 24.48% | 
2 | N#Cc1cccc(CSc2nc3cc4ccccc4cc3c(=O)n2Cc2ccccc2)c1 | 164 µM |  |  |  |  |  |  | 380 µM | 62.5 µg/mL | 2.32 | 41.94% | 
3 | O=c1c2cc3ccccc3cc2nc(SCc2ccccc2)n1Cc1ccccc1 | 196 µM |  |  |  |  |  |  | 419 µM | 62.5 µg/mL | 2.14 | 42.31% | 
4 | O=c1c2cc3ccccc3cc2nc(SCc2ccc([N+](=O)[O-])cc2)n1Cc1ccccc1 |  | Not Active |  |  |  |  |  | 48.2 µg/mL | 31.2 µg/mL |  | 0% | Not Active
5 | Cc1ccccc1CSc1nc2cc3ccccc3cc2c(=O)n1CCc1ccccc1 | 69.8 µM |  |  |  |  |  |  | 86.8 µM | 15.6 µg/mL | 1.24 | 38.09% | 
6 | N#Cc1ccc(CSc2nc3cc4ccccc4cc3c(=O)n2Cc2ccccc2)cc1 | 152 µM |  |  |  |  |  |  | 206 µM | 31.2 µg/mL | 1.35 | 23.82% | 
7 | O=c1c2cc3ccccc3cc2[nH]c(=S)n1CCc1ccccc1 | 128 µM |  |  |  |  |  |  | 391 µM | 31.2 µg/mL | 3.06 | 46.36% | 
8 | Cc1cccc(CSc2nc3cc4ccccc4cc3c(=O)n2Cc2ccccc2)c1 | 90.3 µM |  |  |  |  |  |  | 506 µM | 62.5 µg/mL | 5.61 | 58.76% | 
9 | C=CCSc1nc2cc3ccccc3cc2c(=O)n1CCc1ccccc1 |  | Not Active |  |  |  |  |  | 164 µg/mL | 62.5 µg/mL |  | 3.54% | Not Active
10 | N#Cc1cccc(CSc2nc3cc4ccccc4cc3c(=O)n2CCc2ccccc2)c1 | 130 µM |  |  |  |  |  |  | 163 µM | 31.2 µg/mL | 1.25 | 23.49% | 
11 | N#Cc1ccc(CSc2nc3cc4ccccc4cc3c(=O)n2CCc2ccccc2)cc1 |  | Not Active |  |  |  |  |  | 86.3 µg/mL | 15.6 µg/mL |  | 2.88% | Not Active

Further molecules by falling EC50 [1, 10], results first:

Row | EC50 [1, 10] | EC50 ([1]; vero) | IC50 [5] | inhibition (Hepatovirus A [6]) | inhibition (Hepatovirus A [7]) | inhibition (Hepatovirus A [8]) | inhibition (Hepatovirus A [9]) | Compound | CC50 at 48 h [2] | MNTC at 48 h [2] | selectivity ratio [3] | inhibition (INH) [4] | Ratio CC50/EC50 [3]
12 | 61.7 µM |  |  |  |  |  |  | COc1cccc(CSc2nc3cc4ccccc4cc3c(=O)n2CCc2ccccc2)c1 | 145 µM | 31.2 µg/mL | 2.36 | 54.32% | 
13 | 57.9 µM |  |  |  |  |  |  | O=c1c2cc3ccccc3cc2nc(SCc2ccc(Cl)cc2)n1CCc1ccccc1 | 101 µM | 15.6 µg/mL | 1.75 | 41.26% | 
14 | 43.7 µM |  |  |  |  |  |  | N#Cc1ccccc1CSc1nc2cc3ccccc3cc2c(=O)n1Cc1ccccc1 | 53.5 µM | 7.8 µg/mL | 1.23 | 39.58% | 
15 | 37.3 µM |  | 37.2 µM |  |  |  |  | NC12CC3CC(CC(C3)C1)C2 [AMANTADINE] | 2020 µM |  | 54.1 |  | 
16 | 36.7 µM |  | 3.3 to 36.7 µM | 86% | 64.8% | 37.5% | 9.85% | O=c1c2cc3ccccc3cc2[nH]c(=S)n1Cc1ccccc1 | 180 µM | 15.6 µg/mL | 4.91 | 67.18% | 
17 | 27.6 µM |  | 22.4 to 27.6 µM | 73.1% | 31.1% | 16.3% | 2.65% | NNc1nc2cc3ccccc3cc2c(=O)n1Cc1ccccc1 | 291 µM | 15.6 µg/mL | 10.5 | 63.58% | 
18 | 18 µM |  | 5.92 to 18 µM | 78.8% | 51.5% | 33% | 13.3% | NNc1nc2cc3ccccc3cc2c(=O)n1CCc1ccccc1 | 569 µM | 31.2 µg/mL | 31.6 | 79.81% | 

— ChEMBL document CHEMBL4390703, “Anti-HAV evaluation and molecular docking of newly synthesized 3-benzyl(phenethyl)benzo[g]quinazolines” (Bioorg Med Chem Lett, 2019)
